Here are results for 8 compounds from ChEMBL document CHEMBL1201862, “PubChem BioAssay data set” (2004).

Test [1] is described as follows: microbe, parasite or virus in culture. Conditions: Mycobacterium tuberculosis. Type of test: functional.
The target of test [2] is T1, Corticotropin-releasing factor receptor 2/Corticotropin-releasing factor-binding protein (Homo sapiens, UniProt P24387+Q13324).
T1 sequence (Q13324 whole entry): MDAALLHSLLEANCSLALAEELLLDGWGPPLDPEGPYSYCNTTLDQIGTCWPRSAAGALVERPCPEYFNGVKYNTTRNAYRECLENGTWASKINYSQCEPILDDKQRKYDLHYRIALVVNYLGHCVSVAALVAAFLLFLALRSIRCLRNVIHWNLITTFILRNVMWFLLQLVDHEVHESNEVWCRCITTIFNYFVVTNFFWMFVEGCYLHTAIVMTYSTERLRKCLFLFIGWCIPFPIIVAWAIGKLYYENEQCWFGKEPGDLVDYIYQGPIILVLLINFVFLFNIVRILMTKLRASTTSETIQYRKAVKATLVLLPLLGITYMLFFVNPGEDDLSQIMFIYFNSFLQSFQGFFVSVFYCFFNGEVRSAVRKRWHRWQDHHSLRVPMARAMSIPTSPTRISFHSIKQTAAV
T1 sequence (P24387 whole entry): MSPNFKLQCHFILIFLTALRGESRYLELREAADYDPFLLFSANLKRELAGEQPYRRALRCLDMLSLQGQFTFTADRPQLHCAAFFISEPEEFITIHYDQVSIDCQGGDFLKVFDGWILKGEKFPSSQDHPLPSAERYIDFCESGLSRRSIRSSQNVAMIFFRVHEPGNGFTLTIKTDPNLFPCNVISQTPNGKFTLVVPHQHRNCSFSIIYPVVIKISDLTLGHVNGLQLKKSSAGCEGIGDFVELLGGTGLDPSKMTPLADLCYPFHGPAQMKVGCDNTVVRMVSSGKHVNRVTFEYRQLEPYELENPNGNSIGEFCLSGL
Description: activators of CRF receptor 2 with binding protein – uHTS hits, confirmation (AID 602473). The format is functional. Conditions: read-out: EC50_Mean.

A short description of test [3]: HEp-2 cell cytotoxicity, dose response, cytotoxicity control for RSV inhibitor project, HTS (AID 2410). The format is functional. The conditions noted are these: human respiratory syncytial virus.
For test [4], the target named is T1, Corticotropin-releasing factor receptor 2/Corticotropin-releasing factor-binding protein. Description: Dose Response confirmation of uHTS hits for small molecule antagonists of the CRF-binding protein and CRF-R2 receptor complex. The format is functional. Conditions: read-out: IC50_Mean.
Test [5] in a line: M. tuberculosis growth inhibition, HTS (AID 449762). Type of test: functional.
Test [6] addresses Sphingosine 1-phosphate receptor 2 (Homo sapiens, UniProt O95136). Kind of test: Dose Response Cell Based Assay for Agonists of the S1P2 Receptor. [Related pubchem assays: 729, 736, 843 ]. The format is functional.
Another test deals with T2, Estrogen receptor (Homo sapiens, UniProt P03372).
T2 sequence (P03372 whole entry): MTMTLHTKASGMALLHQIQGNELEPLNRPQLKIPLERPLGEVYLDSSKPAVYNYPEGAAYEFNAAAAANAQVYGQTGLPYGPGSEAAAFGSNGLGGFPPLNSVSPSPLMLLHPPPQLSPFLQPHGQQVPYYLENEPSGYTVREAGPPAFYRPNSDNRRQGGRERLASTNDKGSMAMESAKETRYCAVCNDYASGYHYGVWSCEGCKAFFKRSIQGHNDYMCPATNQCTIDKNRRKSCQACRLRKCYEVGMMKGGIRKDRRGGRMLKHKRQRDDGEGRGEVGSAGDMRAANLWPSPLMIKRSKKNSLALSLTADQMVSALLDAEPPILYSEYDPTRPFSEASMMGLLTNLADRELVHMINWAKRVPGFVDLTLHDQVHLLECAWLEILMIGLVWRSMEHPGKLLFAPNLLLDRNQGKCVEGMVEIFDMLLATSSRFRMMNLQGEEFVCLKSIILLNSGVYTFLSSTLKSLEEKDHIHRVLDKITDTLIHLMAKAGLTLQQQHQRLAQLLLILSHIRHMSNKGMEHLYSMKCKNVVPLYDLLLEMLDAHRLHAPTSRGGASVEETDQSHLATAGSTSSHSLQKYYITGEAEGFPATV

The next test concerns the target Estrogen receptor beta (Homo sapiens, UniProt Q92731).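 Note: recombinant ER-beta bound to coactivator SRC1 peptide in presence of estradiol agonist; inhibitors block coactivator peptide binding and lower the FRET signal.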
The nature of test [7]: THP-1 cell cytotoxicity, dose response, cytotoxicity control for Vif-APOBEC3G degradation inhibitor project, THP-1 cells (AID 1117359). The format is functional. The conditions noted are these: Human immunodeficiency virus 1, THP-1.
Test [8] is described as follows: Luminescent dose response cell-based high throughput screening assay for inhibitors of the Janus kinase 2 mutant JAK2V617F. [Related pubchem assays: 1446 (Primary screen.), 1521 (Confirmation assay.), 1486 (Counter screen.)]. The format is functional.
For test [9], the target named is T3, Rac GTPase-activating protein 1 (Homo sapiens, UniProt Q9H0H5).
T3 sequence (Q9H0H5 whole entry): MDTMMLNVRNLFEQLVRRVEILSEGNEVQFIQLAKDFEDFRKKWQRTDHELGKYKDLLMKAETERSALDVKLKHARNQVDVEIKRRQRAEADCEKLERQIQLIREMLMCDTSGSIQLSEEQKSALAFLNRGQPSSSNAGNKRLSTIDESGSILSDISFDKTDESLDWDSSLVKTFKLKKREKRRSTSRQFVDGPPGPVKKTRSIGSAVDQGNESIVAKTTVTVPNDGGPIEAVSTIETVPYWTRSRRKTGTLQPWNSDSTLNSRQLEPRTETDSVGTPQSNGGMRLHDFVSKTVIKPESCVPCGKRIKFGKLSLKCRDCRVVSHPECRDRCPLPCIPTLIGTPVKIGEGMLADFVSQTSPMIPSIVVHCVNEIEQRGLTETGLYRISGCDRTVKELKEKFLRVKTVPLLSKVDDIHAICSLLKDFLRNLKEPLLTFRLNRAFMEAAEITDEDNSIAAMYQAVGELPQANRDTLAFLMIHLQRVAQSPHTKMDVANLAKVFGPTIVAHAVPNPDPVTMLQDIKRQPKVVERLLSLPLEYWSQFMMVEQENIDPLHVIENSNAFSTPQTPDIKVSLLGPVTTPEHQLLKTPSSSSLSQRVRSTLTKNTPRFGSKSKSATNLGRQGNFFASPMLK
Description: MgcRacGAP GTPase-activating activity inhibitors, confirmation, biochemical, ADP Hunter fluorescence, primary and confirmatory (AID 624330). The format is functional.

Test [10] addresses Heat shock protein HSP 90-alpha (Homo sapiens, UniProt P07900). Description: Luminescence-based dose response biochemical high throughput screening assay for inhibitors of the Heat Shock Protein 90 (HSP90). [Related pubchem assays: 1831 (Summary AID.), 1846 (Confirmation screen.), 1789 (Primary screen.)].
For test [11], the target named is T4, Heat shock factor protein 1 (Mus musculus, UniProt P38532).
T4 sequence (P38532 whole entry): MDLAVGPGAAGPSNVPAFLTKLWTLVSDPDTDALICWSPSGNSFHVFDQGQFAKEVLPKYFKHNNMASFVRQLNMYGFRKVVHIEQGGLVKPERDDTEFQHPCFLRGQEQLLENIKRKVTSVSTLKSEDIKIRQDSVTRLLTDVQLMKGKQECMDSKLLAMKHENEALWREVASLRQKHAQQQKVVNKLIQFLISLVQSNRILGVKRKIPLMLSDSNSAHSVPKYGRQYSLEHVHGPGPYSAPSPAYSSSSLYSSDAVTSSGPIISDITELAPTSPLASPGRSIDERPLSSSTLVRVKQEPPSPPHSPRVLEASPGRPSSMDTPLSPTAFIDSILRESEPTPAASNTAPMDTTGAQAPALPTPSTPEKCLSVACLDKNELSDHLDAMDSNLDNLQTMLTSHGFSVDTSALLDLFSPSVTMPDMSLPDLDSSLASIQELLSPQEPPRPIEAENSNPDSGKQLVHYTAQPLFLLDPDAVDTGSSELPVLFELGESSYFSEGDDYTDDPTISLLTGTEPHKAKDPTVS
Description: HSF1 potentiators in luciferase reporter cells, confirmation, cell-based, NIH3T3, luminescence, dose retest (AID 435004).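 Note: stress induced by proteasome inhibitor MG132 added 30 min after compound; luciferase reporter driven by HSF1 response element in NIH3T3 cells; actives raise luminescence as potentiators of the MG132 stress response.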 The format is functional. On the technique in general: Reporter assays use an easily measured gene product as a stand-in for the process of interest.

A short description of test [12]: HeLa 4N DNA content increase, dose response, cell-based, IC50 (AID 1117351). The format is functional.
The nature of test [13]: HeLa 2N DNA content increase, dose response, cell-based, IC50 (AID 1117349). Type of test: functional.
Test [14] is described as follows: Concentration-dependent survival of SW480 colon cancer line, luminescence detection with CellTiter-Glo, half-maximal inhibitory concentration (AID 1117338). Type of test: functional. (Cellular ATP, detected with luciferase, serves as a proxy for viable cell number.)
The nature of test [15]: cytotoxicity toward HCT116 cells – cell-based, CellTiter-Glo luminescence, IC50, dose response (AID 1117332). The format is functional. The conditions noted are these: HCT-116.
Test [16] in a line: CellTiter-Glo luminescent dose response of DLD-1 viability loss (AID 1117352). The format is functional.
Test [17] in a line: SNU-C1 cell viability reduction, dose response, CellTiter-Glo luminescence (AID 1117323). Type of test: functional, cell-based.
Test [18] can be described thus: cytotoxicity toward HT-29 cells – cell-based, CellTiter-Glo luminescence, IC50, dose response (AID 1117330). The format is functional.
A short description of test [19]: cytotoxicity toward Colo320 cells – cell-based, CellTiter-Glo luminescence, IC50, dose response (AID 1117334). Type of test: functional. Conditions: COLO 320.
Test [20] can be described thus: RKO cell viability reduction, dose response, CellTiter-Glo luminescence (AID 1117322). Type of test: functional.
A further test has as its target T5, Cytochrome P450 1A2 (Homo sapiens, UniProt P05177).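 Note: PubChem cytochrome P450 panel assay, CYP1A2 panel member.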
T5 sequence (P05177 whole entry): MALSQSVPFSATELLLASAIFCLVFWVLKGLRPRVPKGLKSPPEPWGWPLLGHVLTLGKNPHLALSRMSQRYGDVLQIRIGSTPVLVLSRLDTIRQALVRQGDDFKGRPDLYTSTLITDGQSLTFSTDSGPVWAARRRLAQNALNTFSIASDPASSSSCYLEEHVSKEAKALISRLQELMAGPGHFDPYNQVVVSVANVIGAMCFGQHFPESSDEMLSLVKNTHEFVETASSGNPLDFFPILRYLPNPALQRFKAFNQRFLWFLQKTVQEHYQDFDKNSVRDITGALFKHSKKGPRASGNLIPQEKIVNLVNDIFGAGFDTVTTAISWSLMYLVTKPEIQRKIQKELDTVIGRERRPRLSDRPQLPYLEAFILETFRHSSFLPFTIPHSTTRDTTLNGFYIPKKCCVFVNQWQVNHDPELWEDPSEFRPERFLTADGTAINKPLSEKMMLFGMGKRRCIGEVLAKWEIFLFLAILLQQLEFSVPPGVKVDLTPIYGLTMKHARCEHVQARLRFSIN

A further test has as its target Ephrin type-A receptor 4 (Mus musculus, UniProt Q03137). Kind of test: inhibitors of EphA4 binding to KYL peptide, primary screen, biochemical, colorimetric, mouse EphA4 (AID 689). The format is functional.

SMILES strings stand for the structures. Active and inactive are the calls of the source.

Sequence of Sphingosine 1-phosphate receptor 2 (O95136 whole entry): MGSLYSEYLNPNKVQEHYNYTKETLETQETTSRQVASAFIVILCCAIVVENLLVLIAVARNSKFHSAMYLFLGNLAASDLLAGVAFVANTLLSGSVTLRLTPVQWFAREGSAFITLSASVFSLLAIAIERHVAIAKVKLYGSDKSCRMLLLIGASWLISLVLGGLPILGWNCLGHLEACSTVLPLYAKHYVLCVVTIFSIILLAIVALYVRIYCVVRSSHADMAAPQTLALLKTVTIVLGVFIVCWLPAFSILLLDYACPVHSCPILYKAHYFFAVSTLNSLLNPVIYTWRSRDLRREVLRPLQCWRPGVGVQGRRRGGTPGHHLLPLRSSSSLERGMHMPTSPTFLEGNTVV
Sequence of Ephrin type-A receptor 4 (Q03137 whole entry): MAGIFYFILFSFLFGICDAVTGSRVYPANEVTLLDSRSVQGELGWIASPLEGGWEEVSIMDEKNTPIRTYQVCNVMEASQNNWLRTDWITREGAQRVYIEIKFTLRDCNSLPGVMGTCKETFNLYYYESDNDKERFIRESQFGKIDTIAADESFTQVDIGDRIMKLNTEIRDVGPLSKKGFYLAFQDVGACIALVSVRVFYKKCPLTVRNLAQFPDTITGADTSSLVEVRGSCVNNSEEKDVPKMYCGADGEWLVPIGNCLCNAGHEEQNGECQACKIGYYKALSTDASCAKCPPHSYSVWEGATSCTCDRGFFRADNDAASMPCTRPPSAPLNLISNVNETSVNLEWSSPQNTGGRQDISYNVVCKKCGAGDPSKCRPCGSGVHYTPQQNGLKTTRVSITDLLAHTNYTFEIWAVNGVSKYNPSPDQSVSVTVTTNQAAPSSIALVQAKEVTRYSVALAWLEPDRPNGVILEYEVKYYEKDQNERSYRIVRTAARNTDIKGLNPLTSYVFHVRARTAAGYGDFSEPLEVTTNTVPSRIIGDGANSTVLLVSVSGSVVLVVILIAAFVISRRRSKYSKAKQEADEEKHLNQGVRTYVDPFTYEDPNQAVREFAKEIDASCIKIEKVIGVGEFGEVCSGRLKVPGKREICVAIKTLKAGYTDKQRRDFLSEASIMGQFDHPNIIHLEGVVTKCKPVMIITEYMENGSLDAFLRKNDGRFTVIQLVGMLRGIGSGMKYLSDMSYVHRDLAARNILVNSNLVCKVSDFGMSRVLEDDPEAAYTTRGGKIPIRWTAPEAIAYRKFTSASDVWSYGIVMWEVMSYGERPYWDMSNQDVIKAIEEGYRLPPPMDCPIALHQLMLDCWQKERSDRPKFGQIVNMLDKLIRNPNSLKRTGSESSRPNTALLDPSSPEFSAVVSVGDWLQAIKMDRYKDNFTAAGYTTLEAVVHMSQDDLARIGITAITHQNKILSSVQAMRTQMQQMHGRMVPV
Sequence of Estrogen receptor beta (Q92731 whole entry): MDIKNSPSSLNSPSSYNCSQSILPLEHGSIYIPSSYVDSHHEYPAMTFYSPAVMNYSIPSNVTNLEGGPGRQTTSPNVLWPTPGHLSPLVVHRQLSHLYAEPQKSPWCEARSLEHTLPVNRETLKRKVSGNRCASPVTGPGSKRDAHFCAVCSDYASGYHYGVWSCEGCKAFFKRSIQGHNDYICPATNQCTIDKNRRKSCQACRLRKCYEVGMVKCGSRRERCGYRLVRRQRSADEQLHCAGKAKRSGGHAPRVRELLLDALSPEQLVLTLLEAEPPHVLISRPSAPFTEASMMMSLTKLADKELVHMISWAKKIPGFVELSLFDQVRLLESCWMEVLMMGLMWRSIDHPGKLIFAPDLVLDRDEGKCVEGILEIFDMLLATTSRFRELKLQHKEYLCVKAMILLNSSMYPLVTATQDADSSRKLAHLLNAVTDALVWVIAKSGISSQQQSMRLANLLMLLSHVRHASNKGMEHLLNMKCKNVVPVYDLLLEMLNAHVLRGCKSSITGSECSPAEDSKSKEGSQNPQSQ

As to `Cc1nn(-c2ccccc2)c(N2CCCC2)c1/C=N/Nc1ccc(S(N)(=O)=O)cc1[N+](=O)[O-]`, the CC50 was > 40 µM (active) in test [1] and 33.2 µM (active) in test [3]. Moreover, the EC50 in [2] is > 53 µM (inactive). Besides, the IC50 in test [4] is > 47.1 µM (inactive); in test [5], > 100 µM (active).

Turning to `Cc1cccc2cc(C(c3nnnn3CC3CCCO3)N3CCc4ccccc4C3)c(=O)[nH]c12` (stereo not given), the EC50 in test [6] was > 50 µM (not active).

Regarding `Cn1nc([N+](=O)[O-])c2c(-c3nc4ccccc4s3)c(N)n(C3CCCCC3)c2c1=O`, the IC50 on Estrogen receptor is 4.98 µM (active); at Estrogen receptor beta, 6.01 µM (active).

On to `O=C(/C=C/c1ccc(O)c(O)c1)c1ccc(S(=O)(=O)N2CCCCCC2)cc1`, for which the CC50 in test [7] is 26.3 µM (active). The figures for the IC50 in [8] and in [9] were 0.835 µM (active) and 82 µM (active), respectively.

On to `CCC(=O)Nc1ccccc1C(=O)OCC(=O)c1ccccc1`, for which the IC50 in test [10] was 2.13 µM (active). Moreover, the EC50 in test [11] was 46.9 µM (active).

Consider `COC(=O)NCCOC(=O)N(O)c1ccc(Br)cc1`, for which the IC50 in [10] is reported as 16.7 µM (not active).

Consider `O=C1C(O)=C([C@H]2CC[C@H](c3ccc(Cl)cc3)CC2)C(=O)c2ccccc21` [ATOVAQUONE], for which the IC50 in [12] is > 10 µM (inactive); in test [13] it was > 10 µM (inactive); in test [14] it was 0.0946 µM (active); in [15], 0.138 µM (active); in test [16], 0.0838 µM (active); in test [17], 0.368 µM (active). Also, the IC50 in test [18] is 0.411 µM (active); in [19], 0.176 µM (active); in [20], 0.114 µM (active).

The term AC50 denotes the concentration giving half of the maximal activity seen. Regarding `Brc1ccc(-c2nnc(-c3cccc(Br)c3)o2)cc1`, on Cytochrome P450 1A2, the AC50 is 0.316 µM (inconclusive). The IC50 on Ephrin type-A receptor 4 is > 100 µM (not active).
